Measurements taken from publication PMC8403975 (Bioorganic Chemistry, 2021).
In brackets after ≈: the same amount, converted by molar mass. Several values for one entry are separate records, joined by “and”; a condition that tells them apart may be missing. Equal entries are not always repeated. Where two headings read alike, the source gives them in different places.

Columns and labels:
[1] = test system: voltage-dependent Ca2+ channels (isolated rat ileum); assay: Calcium antagonism: relaxation of K+; details: K+ (80 mM)-induced contractions of rat ileum; mean ± SD, three independent experiments
[2] = molecular target: ACE2:SARS-CoV-2 Spike (RBD) (Homo sapiens, UniProt Q9BYF1); assay: biochemical; format: binding
ACE2:SARS-CoV-2 Spike (RBD), sequence (Q9BYF1 18-740): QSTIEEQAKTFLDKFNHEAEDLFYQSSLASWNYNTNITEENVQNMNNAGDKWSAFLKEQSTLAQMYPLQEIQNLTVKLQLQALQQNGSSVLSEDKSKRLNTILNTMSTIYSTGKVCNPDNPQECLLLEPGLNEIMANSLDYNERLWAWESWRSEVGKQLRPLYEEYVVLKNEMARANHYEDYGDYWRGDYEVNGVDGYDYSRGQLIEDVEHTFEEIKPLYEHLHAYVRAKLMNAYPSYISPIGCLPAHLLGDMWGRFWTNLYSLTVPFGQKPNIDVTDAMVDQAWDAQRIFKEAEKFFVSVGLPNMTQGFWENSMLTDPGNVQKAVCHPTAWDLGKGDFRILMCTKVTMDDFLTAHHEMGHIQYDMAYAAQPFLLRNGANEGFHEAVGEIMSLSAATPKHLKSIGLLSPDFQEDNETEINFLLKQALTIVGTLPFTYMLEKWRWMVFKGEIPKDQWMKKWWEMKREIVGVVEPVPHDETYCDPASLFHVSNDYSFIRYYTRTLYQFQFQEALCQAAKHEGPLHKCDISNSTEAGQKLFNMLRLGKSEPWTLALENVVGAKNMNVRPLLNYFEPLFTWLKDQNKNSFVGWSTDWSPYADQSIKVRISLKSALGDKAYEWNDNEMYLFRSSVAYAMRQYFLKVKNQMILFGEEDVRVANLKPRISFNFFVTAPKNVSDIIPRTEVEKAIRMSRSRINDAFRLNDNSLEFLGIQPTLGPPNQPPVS

[3] = test system: PMA-differentiated THP-1 cells; assay: PMA-differentiated THP-1 cell viability assay; format: cell-based; details: Homo sapiens, THP-1, 24 h
[4] = test system: IL-6 production in LPS-stimulated THP-1 cells; assay: IL-6 production by LPS-stimulated PMA-differentiated THP-1 cells; format: cell-based, human; details: compared to LPS (positive control); for Reduction of IL-6 level: compound at 1/4 IC50, added 2 h prior to LPS 0.5 μg/mL, 24 h
[5] = test system: CRP production in LPS-stimulated THP-1 cells; assay: CRP production by LPS-stimulated PMA-differentiated THP-1 cells; format: cell-based, human; details: compared to LPS (positive control); for Effect on CRP level (in words): compound at 1/4 IC50, LPS 0.5 μg/mL
Male Wistar albino rats = format: in vivo, rat; details: mean arterial BP compared to the control group

Row | Compound | IC50 [1] [µg/mL] | IC50 [2] | IC50 [3] [µg/mL] | IC50 ([3]; read-out: IC50 µM) [µM] | Reduction of IL-6 level [4] | Effect on CRP level (in words) [5] | % reduction in BP (Male Wistar albino rats) | Effect on IL-6 level (in words) ([4]; compound at 1/4 IC50, LPS 0.5 μg/mL) | Decrease in the level of CRP ([5]; compound at 1/4 IC50, added 2 h prior to LPS 0.5 μg/mL, 24 h)
1 | CC1=C(C(=O)Nc2ccc(C)cc2)C(c2ccccc2Cl)NC(=S)N1 (stereo not shown) [Compound 8b, 4-(2-chlorophenyl)-6-methyl-N-(4-methylphenyl)-2-thioxo-1,2,3,4-tetrahydropyrimidine-5-carboxamide] | 22.91 ± 2.59 (≈ 61.6 µM) | 19.2 ± 1.11 nM |  |  |  |  |  |  | 
2 | CC1=C(C(=O)Cl)C(c2ccccc2C#N)NC(=S)N1 (stereo not shown) [Compound 6a, 6-Methyl-4-(2-cyanophenyl)-2-thioxo-1,2,3,4-tetrahydropyrimidine-5-carbonyl chloride] | 26.84 ± 1.51 | 17.5 ± 1.31 nM |  |  |  |  |  |  | 
3 | CCOC(=O)C1=C(C)NC(=S)NC1c1ccccc1Cl (stereo not shown) [Compound 4b, Ethyl-4-(2-chlorophenyl)-6-methyl-2-thioxo-1,2,3,4-tetrahydropyrimidine-5-carboxylate] | 24.69 ± 2.35 (≈ 79.4 µM) | ~12.5 nM and 12.5 nM | 698 ± 65.6 | 231 |  |  |  |  | 
4 | CC1=C(C(=O)O)C(c2ccccc2Cl)NC(=S)N1 (stereo not shown) [Compound 5b, 4-(2-chlorophenyl)-6-Methyl-2-thioxo-1,2,3,4-tetrahydropyrimidine-5-carboxylic acid] | 25.25 ± 1.39 (≈ 89.3 µM) | ~12.5 nM and 12.5 nM | 967 ± 79.2 | 342 |  |  |  |  | 
5 | CC1=C(C(=O)Nc2ccc(F)cc2)C(c2ccccc2C#N)NC(=S)N1 (stereo not shown) [Compound 7c, 4-(2-cyanophenyl)-6-methyl-N-(4–fluorophenyl)-2-thioxo-1,2,3,4-tetrahydropyrimidine-5-carboxamide] | 22.85 ± 1.11 (≈ 62.4 µM) | 20.1 ± 1.1 nM |  |  |  |  |  |  | 
6 | CC1=C(C(=O)O)C(c2ccccc2C#N)NC(=S)N1 (stereo not shown) [Compound 5a, 4-(2-cyanophenyl)-6-methyl-2-thioxo-1,2,3,4-tetrahydropyrimidine-5-carboxylic acid] | 24.37 ± 1.45 (≈ 89.2 µM) | 9.8 ± 1.06 nM | 496 ± 38.7 | 118 | about 56% | moderate decrease |  |  | 
7 | CC1=C(C(=O)Nc2ccccc2)C(c2ccccc2Cl)NC(=S)N1 (stereo not shown) [Compound 8a, 4-(2-chlorophenyl)-6-methyl-N-phenyl-2-thioxo-1,2,3,4-tetrahydropyrimidine-5-carboxamide] | 20.23 ± 1.79 (≈ 56.5 µM) | 10.6 ± 0.61 nM | 464 ± 29.7 | 125 |  |  | up to 29% |  | 
8 | CC1=C(C(=O)Nc2ccc(C)cc2)C(c2ccccc2C#N)NC(=S)N1 (stereo not shown) [Compound 7b, 4-(2-cyanophenyl)-6-methyl-N-(4-methylphenyl)-2-thioxo-1,2,3,4-tetrahydropyrimidine-5-carboxamide] | 22.81 ± 2.46 (≈ 62.9 µM) | 10.8 ± 0.75 nM | 222 ± 10.1 | 61 | 47% | moderate decrease |  |  | 
9 | CCOC(=O)C1=C(C)NC(=S)NC1c1ccccc1C#N (stereo not shown) [Compound 4a, Ethyl-4-(2-cyanophenyl)-6-methyl-2-thioxo-1,2,3,4-tetrahydropyrimidine-5-carboxylate] | 23.07 ± 1.53 (≈ 76.6 µM) | 8.5 ± 0.92 nM | 1550 ± 134 | 533 |  |  |  |  | 
10 | CC1=C(C(=O)Nc2ccccc2)C(c2ccccc2C#N)NC(=S)N1 (stereo not shown) [Compound 7a, 4-(2-cyanophenyl)-6-methyl-N-phenyl-2-thioxo-1,2,3,4-tetrahydropyrimidine-5-carboxamide] | 19.65 ± 1.60 (≈ 56.4 µM) | 11.6 ± 0.94 nM | 434 ± 32.9 | 123 |  |  | up to 29% | lowest effect | 
11 | CC1=C(C(=O)Nc2ccccc2)C(c2ccccc2Br)NC(=S)N1 (stereo not shown) [Compound 9a, 4-(2-bromophenyl)-6-methyl-N-phenyl-2-thioxo-1,2,3,4-tetrahydropyrimidine-5-carboxamide] | 21.45 ± 2.55 (≈ 53.3 µM) | 13.7 ± 1.37 nM | 484.9 ± 3.24 | 116 | ~79% |  | 27% |  | about 95%
12 | CC1=C(C(=O)Cl)C(c2ccccc2Cl)NC(=S)N1 (stereo not shown) [Compound 6b, 6-Methyl-4-(2-chlorophenyl)-2-thioxo-1,2,3,4-tetrahydropyrimidine-5-carbonyl chloride] | 30.78 ± 2.52 | 23.7 ± 1.35 nM |  |  |  |  |  |  | 
13 | CC1=C(C(=O)Cl)C(c2ccccc2Br)NC(=S)N1 (stereo not shown) [Compound 6c, 6-Methyl-4-(2-bromophenyl)-2-thioxo-1,2,3,4-tetrahydropyrimidine-5-carbonyl chloride] | 29.73 ± 2.44 | 16.5 ± 1.08 nM |  |  |  |  |  |  | 
14 | CCOC(=O)C1=C(C)NC(=S)NC1c1ccccc1Br (stereo not shown) [Compound 4c, Ethyl-4-(2-bromophenyl)-6-methyl-2-thioxo-1,2,3,4-tetrahydropyrimidine-5-carboxylate] | 23.62 ± 2.33 (≈ 66.5 µM) | 23 ± 1 nM |  |  |  |  | about 21% |  | 
